Source: US20200022964A1, “COMPOSITIONS AND METHODS FOR TREATMENT OF INFLAMMATORY AUTOIMMUNE DISEASES” (New York University, priority 2018, published 2020)

Columns and labels:
TNF-α and TNFR1 = TNF-α and TNFR1 (Homo sapiens, UniProt P19438); assay: Solid phase binding of TNF-α to TNFR1
Description: Solid phase binding. […] Briefly, a 96-well ELISA plate was coated with 100 μL of 0.5 ng/μL TNFR1 at 4° C. overnight. The plate was washed with PBST 5 times, and 300 μL blocking buffer was added to each well followed by incubation at room temperature for 1 hour. After discarding the blocking buffer, 50 μL buffer containing drugs at concentrations ranging from 0.1 nM to 10^5 nM were added to the plate for 1 hour at room temperature. Three wells incubated with bovine serum albumin (BSA) served as negative controls and three wells containing TNF-α were set as positive controls. Without washing, 50 μL buffer containing 10 ng biotin-labeled TNF-α was added to each well and incubated at room temperature for 2 hours. The plate was washed and 100 μL buffer containing streptavidin-HPR was added and incubated at room temperature for 30 minutes. After a final wash, 100 μL TMB buffer was added to each well and the reaction was stopped when the positive control group turned blue. The plate was read by automatic plate reader at 450 nm.

p38 or ERK1/2 = assay: Western blot of TNF activated phosphorylation of p38 and ERK1/2 in BMDMs; type: cell-based, mice; details: TNF-α 10 ng/mL; FFD 10 μM
Description: Primary bone marrow derived macrophages (BMDMs) extraction. BMDMs were isolated from C57BL/6 and TNF-tg mice. After mice were sacrificed by cervical dislocation, the tibia and femur were isolated and both ends of the bones were cut to open the medullary cavity. Bone marrow cells were collected by centrifuge at 13000 g for 90 seconds and seeded in 6-well plates. Prior to their use in experiments, M-CSF (10 ng/ml, 576406, Biolegend) was added for 6 days to the BMDM culture medium.
Western blot. After protein samples were prepared, samples were separated by SDS-PAGE and transferred to a nitrocellulose (NC) membrane (162-0115, BIO-RAD) using a wet transfer system. Membrane was blocked in 5% (w/v) non-fat milk in TBST for half an hour at room temperature, followed by incubation with appropriate primary antibody overnight at 4° C. After washing, appropriate secondary antibody was added for 1 hour at room temperature. The bands on the membrane were developed by chemiluminescent (ECL) substrate and visualized by GelDoc system.

[1] = tested on: TNFRs expressed on cell surface; assay: Flow cytometry of biotin-labelled TNF-α binding to RAW264.7 cell surface; type: cell-based; details: RAW264.7 cells; FFD 10 μM, TFD 1 μM overnight
Description: Flow cytometry. […] RAW 264.7 cells were seeded in a 12-well plate. […] Then the samples were analyzed at NYU core facilities using a FACS Calibur cell analyzer with CellQuest software.

TNF-tg mice = assay: hTNF-tg mouse model of inflammatory arthritis; details: for serum levels of IL-1β and IL-6: compared with the control group; for clinical scores of arthritis: oral daily from 8 weeks of age, 13 weeks, FFD 10 mg/kg, TFD 50 mg/kg; for therapeutic effects (swelling score): treatment started at average score of approximately eight points, FFD 0.4, 2, 10 mg/kg, TFD 2, 10, 50 mg/kg oral, 8 weeks; for swelling score once the treatment resumed: treatment stopped at 17-week and resumed at 19-week time point
Description: Six mice in each group. Swelling scores were assessed weekly in accordance with the scoring system offered by the company. The swelling scores were taken as the sum of the scores from digits, paws, wrists and ankles with the highest possible score for each mouse at 24. The score system is: 20 digits (0=normal, 0.2=one or more swollen joints), 4 paws (0=normal, 1=noticeable swollen, 2=severe swollen), 2 wrists (0=normal, 1=noticeable swollen, 2=severe swollen), and 2 ankles (0=normal, 2=noticeable swollen, 4=severe swollen). At the end of treatment and observation, mice were sacrificed for collection of sera, spleens and ankles.

[2] = tested on: TNF-α/NF-κB signaling pathway; assay: NF-κB beta-lactamase reporter gene assay in NF-κB-bla THP-1 cell line; type: cell-based; details: THP-1 cells, drug overnight; for TNF-α-activated NF-κB reporter gene: then TNF-α 6 hours
Description: In vitro and in vivo screen of FDA-approved drug library. NF-κB-bla THP-1 cell line in which NF-κB beta-lactamase reporter gene was stably integrated, RAW 264.7 macrophages in which NF-κB luciferase reporter gene was transiently transfected, and TNF-tg:NF-κB-Luc double mutant reporter mice were employed to screen the drug library. Screening FDA approved drugs in vitro. NF-κB-bla THP-1 cell line ([…], Invitrogen) was cultured in 96-well plates and FDA approved drugs (10 μM, L1300, Selleckchem) were added and cultured overnight. Next day, […] Loading Kit with CCF2-AM ([…], Invitrogen) was used to detect the β-lactamase activity via SpectraMax i3x system (5025027A Molecular Devices) with excitation wavelength at 409 nm and emission wavelengths at 520 nm or 470 nm. This process was performed in triplicate. Subsequently, the drugs from first screening that could inhibit TNF-α induced NF-κB activity underwent further screening by NF-κB luciferase assay. After transfection with NF-κB luciferase reporter gene and Renilla plasmids for 8 hours, cells were treated with drugs (10 μM) overnight, followed by TNF-α (10 ng/ml) stimulation for 6 hours, then bioluminescence was measured by Dual-Luciferase® Reporter Assay kit (E1910, Promega). The data were analyzed by Graphpad Prism software (GraphPad Software, San Diego, Calif.).

IκB-α = assay: Phosphorylation of IκB-α in vivo (data not shown)
cPLA2 [3] = target: cPLA2 (Homo sapiens, UniProt P47712); details: 293 T cells transfected with Flag-tagged mutants; N-terminal C2D and CD1 deletion
Description: (§1) DARTS assay. Drug affinity responsive target stability (DARTS) assay was performed based on previously reported methods^4. In brief, cell lysate was extracted by M-PER™ Mammalian Protein Extraction Reagent (78501, Thermo Fisher), briefly centrifuged, and mixed with drugs or DMSO for 1 hour on a rotator. Pronase (P5147, Sigma-Aldrich) was added in the mixture for 15 minutes at room temperature. Digestion was stopped by 10 minute incubation with protease inhibitor cocktail on ice. Samples were boiled in SDS loading buffer for SDS-PAGE and Western blot.
(§2) Site-directed mutagenesis.
(§3) Construction of plasmids. The construction of cPLA2 mutant plasmids was based on serial C-terminal and N-terminal deletion of the amino acid sequences associated with functional structure. Each plasmid carried a flag tag. The constructions were: full length cPLA2 (1-750), cPLA2 (126-750), cPLA2 (406-750), cPLA2 (1-479), and cPLA2 (1-144).
Target sequence in this assay (P47712 126-749): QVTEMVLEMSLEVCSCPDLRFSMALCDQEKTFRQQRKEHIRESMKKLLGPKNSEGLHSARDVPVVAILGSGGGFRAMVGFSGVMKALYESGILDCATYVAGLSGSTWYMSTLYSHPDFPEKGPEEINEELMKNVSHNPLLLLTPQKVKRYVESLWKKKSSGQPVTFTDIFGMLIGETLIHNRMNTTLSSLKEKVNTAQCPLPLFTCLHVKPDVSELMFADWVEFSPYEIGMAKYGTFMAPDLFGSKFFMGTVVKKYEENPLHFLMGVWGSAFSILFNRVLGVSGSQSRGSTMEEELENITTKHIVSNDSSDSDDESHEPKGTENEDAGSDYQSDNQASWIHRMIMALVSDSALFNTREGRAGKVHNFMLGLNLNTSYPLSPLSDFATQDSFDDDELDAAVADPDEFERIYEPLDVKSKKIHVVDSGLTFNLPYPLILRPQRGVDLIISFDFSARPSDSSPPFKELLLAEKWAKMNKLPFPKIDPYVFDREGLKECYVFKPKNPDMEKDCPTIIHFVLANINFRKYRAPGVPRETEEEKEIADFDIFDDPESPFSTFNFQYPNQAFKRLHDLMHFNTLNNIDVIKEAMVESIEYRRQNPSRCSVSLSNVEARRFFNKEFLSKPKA

cPLA2 [4] = target: cPLA2 (Homo sapiens, UniProt P47712, S505A); details: 293 T cells transfected with point mutant plasmid
Description: as §1, §2, §3

cPLA2 [5] = target: cPLA2 (Homo sapiens, UniProt P47712); details: 293 T cells transfected with Flag-tagged mutants
Description: as §1, §2, §3
Target sequence in this assay (P47712 1-479): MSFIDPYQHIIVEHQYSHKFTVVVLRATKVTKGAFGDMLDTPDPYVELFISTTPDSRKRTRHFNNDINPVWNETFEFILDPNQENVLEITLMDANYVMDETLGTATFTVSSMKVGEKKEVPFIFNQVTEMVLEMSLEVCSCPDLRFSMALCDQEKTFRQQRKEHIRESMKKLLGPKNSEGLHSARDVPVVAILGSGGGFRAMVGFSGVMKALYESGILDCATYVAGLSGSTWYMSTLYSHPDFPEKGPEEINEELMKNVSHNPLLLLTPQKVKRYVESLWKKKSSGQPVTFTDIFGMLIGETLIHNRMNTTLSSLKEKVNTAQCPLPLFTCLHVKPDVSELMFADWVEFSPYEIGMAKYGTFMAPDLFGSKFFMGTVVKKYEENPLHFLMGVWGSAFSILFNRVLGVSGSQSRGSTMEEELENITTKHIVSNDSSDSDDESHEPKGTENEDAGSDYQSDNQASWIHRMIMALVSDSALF

cPLA2 [6] = details: series of protease to cell lysate ratios
Description: as §1, §2, §3

TNF-α and TNFR1, sequence (P19438 30-211 limits assumed, species assumed): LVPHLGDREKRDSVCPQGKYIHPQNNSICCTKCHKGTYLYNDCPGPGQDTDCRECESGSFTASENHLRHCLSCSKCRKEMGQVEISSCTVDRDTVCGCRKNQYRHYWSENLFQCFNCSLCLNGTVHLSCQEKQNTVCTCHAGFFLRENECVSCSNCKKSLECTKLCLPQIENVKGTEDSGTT
cPLA2 (Homo sapiens, UniProt P47712, S505A), sequence (P47712 whole entry S505A): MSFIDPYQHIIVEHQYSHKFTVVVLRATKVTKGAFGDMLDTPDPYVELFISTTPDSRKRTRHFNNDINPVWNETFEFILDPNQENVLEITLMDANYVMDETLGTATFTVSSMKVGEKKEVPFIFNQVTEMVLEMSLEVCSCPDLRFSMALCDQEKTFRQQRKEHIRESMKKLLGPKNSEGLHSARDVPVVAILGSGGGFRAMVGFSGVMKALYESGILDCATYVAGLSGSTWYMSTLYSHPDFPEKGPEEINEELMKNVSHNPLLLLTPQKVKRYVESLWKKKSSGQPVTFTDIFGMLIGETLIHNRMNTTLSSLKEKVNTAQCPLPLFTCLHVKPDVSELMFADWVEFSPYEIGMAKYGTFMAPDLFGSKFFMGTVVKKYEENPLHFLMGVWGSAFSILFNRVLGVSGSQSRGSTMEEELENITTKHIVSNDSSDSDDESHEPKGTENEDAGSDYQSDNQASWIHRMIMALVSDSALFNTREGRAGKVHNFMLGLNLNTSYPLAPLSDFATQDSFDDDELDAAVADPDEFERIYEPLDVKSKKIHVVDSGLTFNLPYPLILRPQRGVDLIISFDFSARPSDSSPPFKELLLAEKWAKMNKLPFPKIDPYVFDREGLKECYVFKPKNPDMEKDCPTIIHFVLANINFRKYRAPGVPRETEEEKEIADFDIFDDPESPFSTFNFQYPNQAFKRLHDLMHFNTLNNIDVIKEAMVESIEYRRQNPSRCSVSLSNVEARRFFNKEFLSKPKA

Row | Structure (SMILES) | binding of TNF-α to TNFR1 in vitro (TNF-α and TNFR1) | phosphorylation of p38 or ERK1/2 (p38 or ERK1/2) | binding of TNF-α to the cell surface [1] | clinical scores of arthritis, comparison with MTX (TNF-tg mice; prevention, FFD 10 mg/kg vs MTX 2 mg/kg oral daily) | serum levels of IL-1β and IL-6 (TNF-tg mice; prevention) | clinical scores of arthritis (TNF-tg mice; prevention) | therapeutic effects (swelling score) (TNF-tg mice) | swelling score once the treatment resumed (TNF-tg mice) | AA activation of the NF-κB reporter gene ([2]; then AA 6 hours) | TNF-α-activated NF-κB reporter gene [2] | TNF-α-activated NF-κB reporter gene ([2]; listed as FFD) | phosphorylation of NF-κB p65 upstream mediator IκB-α in vivo (IκB-α) | DARTS protective effects on cPLA2 (126-750) and cPLA2(406-750) (cPLA2 [3]) | DARTS protective effect on Ser-505 to Ala point mutant of cPLA2 (cPLA2 [4]) | DARTS protective effects on mutants lacking the CD2 domain, cPLA2 (1-479) and cPLA2 (1-144) (cPLA2 [5]) | protection of cPLA2 from protease (DARTS, Western blot) (cPLA2 [6])
1 | CC(C)(C(=O)O)c1ccc(C(O)CCCN2CCC(C(O)(c3ccccc3)c3ccccc3)CC2)cc1 (centres unmarked) [fexofenadine] | did not affect | did not affect | did not affect | more effective than MTX | significantly reduced | significant reduction | effective therapeutic effects in a dose-dependent manner | immediate reduction | did not constrain | inhibited | inhibit | inhibited | retained protective effects | lost its protective effect | did not show any protective effects | protected
2 | CC(C)(C)c1ccc(C(O)CCCN2CCC(C(O)(c3ccccc3)c3ccccc3)CC2)cc1 (centres unmarked) [terfenadine] | did not affect |  | did not affect |  | significantly reduced | significant reduction | effective therapeutic effects in a dose-dependent manner | immediate reduction |  | inhibit |  |  |  |  |  | 
